According to patent US10620222B2, “Electrified compositions for determining the risk of developing adolescent idiopathic scoliosis through the use of GI protein receptor” (CHU Sainte-Justine, priority 2008, dated 2020):
“And” between values parts separate entries of the source, which are not always exact repeats. Identical values can stand only once.

Legend:
[1] = system: receptors coupled to Gi proteins expressed on osteoblasts; experiment: Cellular Dielectric Spectroscopy (CDS, CELLKEY) response to Gi-coupled receptor ligands in osteoblasts from control and AIS subjects; assay type: cell-based, human; conditions: for dZiec value: n1, n2 of Exper. 1-3
[2] = system: melatonin signaling in PBMCs; experiment: CDS response to iodomelatonin in PBMCs from control and IS subjects; assay type: cell-based, human
Description: Blood samples were obtained from patients and control groups and collected in blood collection tubes containing EDTA and then centrifuged on a Ficoll-Plaque (GE Healthcare, Mississauga, ON, Canada) solution to obtain PBMCs (containing principally lymphocytes). PBMC fractions were preserved frozen in FBS with 10% DMSO and kept in liquid nitrogen until thawed and assayed. PBMCs were harvested from stock tissue culture flask and washed three times with assay buffer. Cells were isolated from the heparinized peripheral by ficoll-Hypaque density gradient centrifugation, and cultured in RPMI 1640 medium supplemented with 10% FBS, 100 μg/mL streptomycin and 1% of phytohemagglutinin. Following 48 h of incubation at 37° C./CO2 cells were washed three times with assay buffer and seeded into the CELLKEY™ label-free cellular analysis system small 96-well plates. Typically, an average of 1×10^5 cells to 1.5×10^5 were added to each well and allowed to settle for 30 min at room temperature. […] After the cells settled, the cell plate was placed on the instrument and experiments were initiated in the manner described below after the acquisition of 5 min of baseline measurements. All experiments were conducted at 28° C.
The response induced by the various ligands to their receptors was measured by cellular dielectric spectroscopy (CDS) using the CELLKEY™ label-free cellular analysis technology. (MDS Sciex, San Francisco, Calif., USA). The CELLKEY™ label-free cellular analysis system integrates a proprietary impedance measurement system, custom 96-well microliter plate, onboard 96-well fluidics, and environment control and custom acquisition and analysis software in a full solution package (MDS Sciex) that is compatible with commercially available robotic platforms. Small voltage at 24 frequencies, from 1 KHz to 10 MHz, is applied to a monolayer of cells settled in a 96-well microplate containing electrodes at the bottom, and the resultant current is measured at an update rate of 2 s. […] Onboard fluid additions and exchanges are handled by 96-well head fluid delivery device with a range of 5-500 μL. In addition to the cell plate location, the CELLKEY™ label-free cellular analysis system includes two additional stations for 96- or 384-well compound plates. All aspects of assay set up, execution, and data acquisition and analysis are controlled by CELLKEY™ label-free cellular analysis software.
PBMCs were isolated from control subjects, IS subjects as described in Example 2 above.

[3] = system: Gi protein-mediated pathway in MG63 osteoblast cell line; assay type: cell-based; conditions: 100 ng/mL PTX 16 h, stimulation with 10 μM ligand, 37° C., 5 min
Description: The ability of CDS to detect the relative part of the Gi protein-mediated pathway in melatonin signaling was determined by blocking this pathway with pertussis toxin (PTX). This toxin ADP-ribosylates the a subunit of the heterotrimeric Gi protein and thereby prevents its activity. The MG63 osteoblast cell line was serum-starved for 16 h in the absence or presence of 100 ng/mL of PTX to inhibit the αi subunit of Gi protein. […] Cellular responses were measured with CELLKEY™ label-free cellular analysis system as described in the Material and Methods section.

[4] = osteoblasts of control subjects, 300 μM ligand, from FIGS. 11A-11F
[5] = PBMCs of control subjects, 300 μM, from FIG. 12A

COc1ccc2[nH]c(I)c(CCNC(C)=O)c2c1 [Iodomelatonin, 2-lodomelatonin]
CDS response, dependence on concentration ([1]; osteoblasts from both control and IS patients, FIGS. 4A-4C): concentration-dependent manner
dZiec value ([1]; osteoblasts of AIS#1020 (Group 3), 300 μM ligand): 69.57 and 66.57 and 85.25 and 97.25 and 83.71 and 74.11
dZiec value ([1]; osteoblasts of AIS#1198 (Group 3 in Table II), 300 μM ligand): 61.05 and 65.29 and 70.29 and 60.97 and 57.37
dZiec value ([1]; osteoblasts of AIS#1385 (Group 2), 300 μM ligand): 66.51 and 67.51 and 79.93 and 81.93 and 79.02 and 69.42
dZiec value ([1]; osteoblasts of AIS#1468 (Group 3), 300 μM ligand): 91.38 and 88.38 and 101.69 and 113.69 and 102.83 and 93.23
dZiec value ([1]; osteoblasts of AIS#1474 (Group 1), 300 μM ligand): 33.02 and 32.02 and 38.33 and 32.33 and 39.97 and 36.37
dZiec value ([1]; osteoblasts of AIS#1488 (Group 1), 300 μM ligand): 25.43 and 27.43 and 30.31 and 27.31 and 19.17 and 19.57
dZiec value ([1]; osteoblasts of AIS#1513 (Group 3), 300 μM ligand): 83.92 and 80.92 and 94.08 and 106.08 and 95.30 and 85.70
dZiec value ([1]; osteoblasts of AIS#1550 (Group 2), 300 μM ligand): 55.99 and 48.99 and 60.90 and 62.90 and 62.74 and 59.14
dZiec value ([1]; osteoblasts of control CTR#60, 300 μM ligand): 142.55/— and 139.55/— and 149.20/— and 161.20/— and 152.18/— and 142.58/—
dZiec value ([1]; osteoblasts of control CTR#61, 300 μM ligand): 130.88/— and 127.88/— and 138.31/— and 150.31/— and 140.90/— and 131.30/—
dZiec value ([1]; osteoblasts of control CTR#69, 300 μM ligand): 150.99/— and 147.99/— and 161.10/— and 173.10/— and 162.34/— and 152.74/—
Absolute dZiec, control value of max diff. (maximal control value) [1, 4]: 159
Absolute dZiec, control value of min diff. (minimal control value) [1, 4]: 120
Absolute dZiec, Group 1, max diff. (group value) ([1]; osteoblasts, AIS Group 1 value of max diff., 300 μM ligand, from FIGS. 11A-11F): 15
Absolute dZiec, Group 1, min diff. (group value) ([1]; osteoblasts, AIS Group 1 value of min diff., 300 μM ligand, from FIGS. 11A-11F): 35
Absolute dZiec, Group 2, max diff. (group value) ([1]; osteoblasts, AIS Group 2 value of max diff., 300 μM ligand, from FIGS. 11A-11F): 57
Absolute dZiec, Group 2, min diff. (group value) ([1]; osteoblasts, AIS Group 2 value of min diff., 300 μM ligand, from FIGS. 11A-11F): 84
Absolute dZiec, Group 3, max diff. (group value) ([1]; osteoblasts, AIS Group 3 value of max diff., 300 μM ligand, from FIGS. 11A-11F): 90
Absolute dZiec, Group 3, min diff. (group value) ([1]; osteoblasts, AIS Group 3 value of min diff., 300 μM ligand, from FIGS. 11A-11F): 101
magnitude of CDS response in IS osteoblasts vs control ([1]; osteoblasts, FIGS. 4A-4C): significantly lower
maximal magnitude of CDS response ([2]; PBMCs from IS patients, 300 μM): 110 ohms
minimum magnitude of CDS response ([2]; PBMCs from IS patients, 300 μM): 16 ohms
minimal magnitude of CDS response ([2]; PBMCs from healthy volunteers, 300 μM): 124 ohms
melatonin signaling response (CDS) ([2]; PBMCs from normal/healthy subjects, 300 μM): greater than 120 ohms
Absolute dZiec, control value of max diff. (maximal control value) [2, 5]: 225
Absolute dZiec, control value of min diff. (minimal control value) [2, 5]: 124
responsiveness of PBMCs from patients with IS compared to healthy volunteers ([2]; PBMCs, FIG. 12A, melatonin data not shown): less responsive
Absolute dZiec, Group 1, max diff. (group value) ([2]; PBMCs, Group 1 value of max diff., 300 μM, from FIG. 12A): 16
Absolute dZiec, Group 1, min diff. (group value) ([2]; PBMCs, Group 1 value of min diff., 300 μM, from FIG. 12A): 36
Absolute dZiec, Group 2, max diff. (group value) ([2]; PBMCs, Group 2 value of max diff., 300 μM, from FIG. 12A): 49
Absolute dZiec, Group 2, min diff. (group value) ([2]; PBMCs, Group 2 value of min diff., 300 μM, from FIG. 12A): 75
Absolute dZiec, Group 3, max diff. (group value) ([2]; PBMCs, Group 3 value of max diff., 300 μM, from FIG. 12A): 86
Absolute dZiec, Group 3, min diff. (group value) ([2]; PBMCs, Group 3 value of min diff., 300 μM, from FIG. 12A): 110
mean of CDS response ([2]; PBMCs, IS group 1, 300 μM): 27.86±4.18 ohms
mean of CDS response ([2]; PBMCs, IS group 2, 300 μM): 65.71±3.42 ohms
mean of CDS response ([2]; PBMCs, IS group 3, 300 μM): 97.94±1.36 ohms
mean of CDS response ([2]; PBMCs, control group, 300 μM): 155.17±3.91 ohms
inhibition extent of the CDS response by PTX treatment [3]: ~90%
